One molecule from PubChem BioAssay AID1444 (PCMD, 2008) can be followed below.

The assay concerns the target E3 ubiquitin-protein ligase Mdm2 (Homo sapiens) (UniProt Q00987). The assay can be described thus: wild-type MDM2 reporter signal enhancers, dose response, cell-based, luciferase luminescence (AID 1444). The settings on record: MDM2 wild-type luciferase reporter cells, 2 h.

Structures are written as SMILES. pEC50: −log10 of the molar value.

Chain of E3 ubiquitin-protein ligase Mdm2 (Homo sapiens) (Q00987 whole entry, looked up): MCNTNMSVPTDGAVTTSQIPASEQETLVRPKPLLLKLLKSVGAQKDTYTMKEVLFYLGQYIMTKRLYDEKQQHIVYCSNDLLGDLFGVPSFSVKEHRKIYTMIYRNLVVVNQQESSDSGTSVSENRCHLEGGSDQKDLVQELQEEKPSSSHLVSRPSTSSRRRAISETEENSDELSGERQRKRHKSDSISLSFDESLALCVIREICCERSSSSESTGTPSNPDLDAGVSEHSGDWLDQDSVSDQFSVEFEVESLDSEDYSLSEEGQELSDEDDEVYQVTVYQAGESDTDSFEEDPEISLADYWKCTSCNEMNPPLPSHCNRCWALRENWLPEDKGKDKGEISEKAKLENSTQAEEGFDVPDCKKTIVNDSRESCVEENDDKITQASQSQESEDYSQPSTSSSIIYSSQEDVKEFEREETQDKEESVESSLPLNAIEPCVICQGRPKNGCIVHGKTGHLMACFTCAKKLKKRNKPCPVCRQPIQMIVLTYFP

What is called pEC50 is the negative decadic logarithm of the EC50, by convention in mol/L. As to `CC1=NN(c2cccc(C(=O)O)c2)C(=O)/C1=C\C=C/c1ccccc1`, the pEC50 was 6.14.
